Measured values: patent US20110020843A1, “LABEL-FREE METHODS RELATED TO PHOSPHODIESTERASES” (priority 2009, published 2011)

Key:
[1] = tested on: quiescent A431 cells; assay: DMR modulation index against panel of markers in quiescent A431 cells; format: cell-based, human
Excerpt: (§1) 191. To characterize the polypharmacology including PDE4 inhibitory activity of compounds, we used the known EGFR inhibitor tyrphostin 51 as an example. Quiescent A431 and proliferating A549 cells were separately exposed to tyrphostin 51 at 10 micromolar for about 1 hr to generate its primary profiles, followed by stimulation with each marker at a fixed concentration for another 1 hr or so to generate secondary profiles of the tyrphostin 51 against the panels of markers in both types of cells. Next, one or more specific DMR parameters were chosen as a readout for plotting the DMR index of the molecule.
192. The first panel of markers was contacted with quiescent A431 cells at concentrations close to each of the marker's EC80 or EC100, and DMR measurements were obtained with and EPIC® system. This panel of markers was selected from a library of markers identified in A431 cells using Epic® cellular assays. This panel included epidermal growth factor (EGF), epinephrine, nicotinic acid, and histamine. Each of these markers leads to a wide array of cell signaling. Using Epic® cellular assays in conjunction with chemical biology and cell biology approach similar to the EGFR DMR mentioned above, we have determined the pathway(s) and network interaction(s) that is accounted for each marker-induced DMR signal in A431 cells. The main observations are summarized below. Epidermal growth factor is a natural agonist for endogenous EGF receptor in A431 whose activation leads to a divergent array of cell signaling, including PLC-PI3K pathway, MAPK pathway, STAT pathway, and PKC pathway. Epinephrine is a natural agonist for endogenous beat2-adrenergic receptor in A431 cells, whose activation leads to cAMP-PKA pathway. Nicotinic acid is a natural agonist for endogenous GPR109A receptor in A431, whose activation leads to Gi-mediated signaling and MAPK pathway. Histamine is a natural agonist for endogenous histamine type 1 receptor (H1R) in A431, whose activation leads to Gq-mediated signaling and PKC pathway. […] Each DMR signal represents an averaged response of 4 replicates.
(§2) 194. For the pinacidil DMR response in A549, the amplitude of the N-DMR (i.e., the amplitude 30 min after stimulation) was chosen. For the poly(I:C) DMR response in A549, the amplitude of the late DMR (i.e., the amplitude 50 min after stimulation) was chosen. For the PMA response in A549, the late DMR amplitude (i.e., the amplitude 50 min after stimulation) was chosen. For the SLIGKV-amide DMR response in A549, the P-DMR amplitude (i.e., the amplitude 20 min after stimulation) was chosen. For the forskolin response in A549 cells, the P-DMR amplitude (i.e., the amplitude 50 min after stimulation) was chosen. For the histamine response in A549, both the early DMR amplitude (i.e., amplitude 10 min after stimulation) and the late response (i.e., the amplitude 30 min after stimulation) were chosen. For the epinephrine response in A431, the P-DMR amplitude (i.e., the amplitude 50 min after stimulation) was chosen. For the nicotinic acid DMR in A431, the P-DMR amplitude (i.e., the amplitude 3 min after stimulation) was chosen. For the EGF DMR in A431, both the P-DMR (i.e., the amplitude 4 min after stimulation) and N-DMR amplitudes (i.e., the decaying amplitude between 4 min and 40 min after simulation) were chosen. For the histamine response in A431, the P-DMR amplitude (i.e., the amplitude 3 min after stimulation) was chosen. The percentage of modulation of the marker against each marker was calculated by normalizing the secondary profile of the molecule against the marker in the cell to the primary profile of the same marker acting on the same cell.

[2] = tested on: human lung carcinoma A549 cells; assay: Label-free Epic biosensor DMR assay in A549 cells; format: cell-based; settings: 10 micromolar, ultra-high confluent cells, 2 hrs in low CO2 (~2%) (FIG. 12B)
Experimental: 169. Cells were typically grown using ˜1 to 2×10^4 cells per well at passage 3 to 15 suspended in 50 μl of the corresponding culture medium in the biosensor microplate, and were cultured at 37° C. under air/5% CO2 for ˜1 day. Except for A431 which was subject to ˜20 hr starvation through continuously culture in the serum-free DMEM, the other cell types were directly assayed without starvation. The confluency for all cells at the time of assays was ˜95% to 100%.
177. Epic® wavelength interrogation system (Corning Inc., Corning, N.Y.) was used for whole cell sensing. This system consists of a temperature-control unit, an optical detection unit, and an on-board liquid handling unit with robotics. The detection unit is centered on integrated fiber optics, and enables kinetic measures of cellular responses with a time interval of ˜15 sec. The compound solutions were introduced by using the on-board liquid handling unit (i.e., pippetting).
190. Although we used A431 cells as a model, the disclosed methods are also applicable to other types.
191. To characterize the polypharmacology including PDE4 inhibitory activity of compounds, we used the known EGFR inhibitor tyrphostin 51 as an example. […] Next, one or more specific DMR parameters were chosen as a readout for plotting the DMR index of the molecule.

[3] = tested on: A549 cells; assay: DMR modulation index against panel of markers in A549 cells; format: cell-based, human
Excerpt: as §1
193. The second panel of markers was contacted with A549 cells at concentrations close to each of the marker's EC80 or EC100, and DMR measurements were obtained with and EPIC® system. This panel included poly(I:C), SLIGKV-amide, pinacidil, PMA, histamine, and forskolin. Each of these markers also leads to a wide array of cell signaling. Using Epic® cellular assays in conjunction with chemical biology and cell biology approach similar to the EGFR DMR mentioned above, we have determined the pathway(s) and network interaction(s) that is accounted for each marker-induced DMR signal in A549 cells. The main observations are summarized below. Poly(I:C) is an agonist for endogenous Toll-like receptor(s) in A549, whose activation leads to IKK pathway and AKT pathway. SLIGKV-amide is an agonist for endogenous protease activated receptor subtype 2 (PAR2) in A549, whose activation leads to Gq-, Gi- and G12/13-mediated signaling. Pinacidil is an opener for endogenous ATP-sensitive potassium (KATP) ion channel in A549, whose activation leads to Rho- and JAK-mediated signaling. PMA is an activator for protein kinase C(PKC), whose activation leads to PKC pathway and degranulation. Histamine is a natural agonist for endogenous histamine receptors (dominantly H1R, and possibly H3R), whose activation leads to dual signaling, possibly through Gq and Gi mediated signaling in A549. Forskolin is an activator for adenylyl cyclases, whose activation leads to cAMP-PKA pathway in A549. […] Each DMR signal represents an averaged response of 4 replicates.
as §2

[4] = quiescent A431, 10 micromolar pretreatment ~1 hr
[5] = 10 micromolar pretreatment ~1 hr

N#CC(C#N)=C(N)/C(C#N)=C/c1cc(O)c(O)c(O)c1 [tyrphostin 51]
effect of pretreatment on EGF induced DMR signal ([1]; A431, FIG. 12C): attenuation
effect of pretreatment on epinephrine DMR signal ([1]; A431, FIG. 12C): partially attenuated
effect of pretreatment on histamine DMR signal ([1]; A431, FIG. 12C): partially attenuated
modulation of EGF N-DMR (decaying amplitude 4 to 40 min) [1, 4]: −5%
modulation of EGF P-DMR (amplitude 4 min) [1, 4]: −36%
modulation of epinephrine DMR (P-DMR amplitude 50 min) [1, 4]: −68%
modulation of histamine DMR (P-DMR amplitude 3 min) [1, 4]: −16%
modulation of nicotinic acid DMR (P-DMR amplitude 3 min) [1, 4]: +4%
primary DMR profile [2]: closely resembled the classic Gs-DMR signals
modulation of PMA DMR (late DMR amplitude 50 min) [3, 5]: −6%
modulation of SLIGKV-amide DMR (P-DMR amplitude 20 min) [3, 5]: 0%
modulation of forskolin DMR (P-DMR amplitude 50 min) [3, 5]: −23%
modulation of histamine early response (amplitude 10 min) [3, 5]: +6%
modulation of histamine late response (amplitude 30 min) [3, 5]: 0%
modulation of poly(I:C) DMR (late DMR amplitude 50 min) [3, 5]: +5%
effect of pretreatment on forskolin DMR signal ([3]; FIG. 12C): partially attenuated
modulation of pinacidil DMR (N-DMR amplitude 30 min) ([3]; tyrphostin 51 at 10 micromolar pretreatment ~1 hr): 0%
